Test results reported in patent US9018414B2, “Substituted 3-phenylpropionic acids and the use thereof” (Bayer Intellectual Property GmbH, priority 2009, dated 2015).

Legend:
[1] = biological target: T1, haem-containing recombinant soluble guanylate cyclase (sGC) (Rattus norvegicus, UniProt P20595); experiment: Stimulation of recombinant soluble guanylate cyclase (sGC) in vitro, haem-containing enzyme; type: biochemical; conditions: for Effect of combination with the NO donor DEA/NO on sGC stimulation: haem-containing sGC
T1 construct: made in house; host or cells: Sf9 insect cells (baculovirus)
T1 sequence (P20595 1-619): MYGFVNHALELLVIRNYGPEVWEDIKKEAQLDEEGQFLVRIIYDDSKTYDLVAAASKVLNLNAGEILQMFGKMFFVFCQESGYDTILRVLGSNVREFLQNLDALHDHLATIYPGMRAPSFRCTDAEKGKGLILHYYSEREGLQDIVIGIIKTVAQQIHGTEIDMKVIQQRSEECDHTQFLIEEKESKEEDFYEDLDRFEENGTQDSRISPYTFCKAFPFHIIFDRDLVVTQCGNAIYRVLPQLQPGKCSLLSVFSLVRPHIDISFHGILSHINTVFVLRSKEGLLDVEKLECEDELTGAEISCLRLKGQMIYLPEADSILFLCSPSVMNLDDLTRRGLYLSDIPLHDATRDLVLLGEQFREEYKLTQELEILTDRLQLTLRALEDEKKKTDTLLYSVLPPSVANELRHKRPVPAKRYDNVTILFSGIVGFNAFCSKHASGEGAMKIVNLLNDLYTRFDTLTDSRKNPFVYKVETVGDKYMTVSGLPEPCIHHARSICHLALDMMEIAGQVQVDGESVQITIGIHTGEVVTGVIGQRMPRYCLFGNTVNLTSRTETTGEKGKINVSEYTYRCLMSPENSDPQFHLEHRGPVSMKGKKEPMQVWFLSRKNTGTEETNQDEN
T1 sequence (P19686 1-690 partner): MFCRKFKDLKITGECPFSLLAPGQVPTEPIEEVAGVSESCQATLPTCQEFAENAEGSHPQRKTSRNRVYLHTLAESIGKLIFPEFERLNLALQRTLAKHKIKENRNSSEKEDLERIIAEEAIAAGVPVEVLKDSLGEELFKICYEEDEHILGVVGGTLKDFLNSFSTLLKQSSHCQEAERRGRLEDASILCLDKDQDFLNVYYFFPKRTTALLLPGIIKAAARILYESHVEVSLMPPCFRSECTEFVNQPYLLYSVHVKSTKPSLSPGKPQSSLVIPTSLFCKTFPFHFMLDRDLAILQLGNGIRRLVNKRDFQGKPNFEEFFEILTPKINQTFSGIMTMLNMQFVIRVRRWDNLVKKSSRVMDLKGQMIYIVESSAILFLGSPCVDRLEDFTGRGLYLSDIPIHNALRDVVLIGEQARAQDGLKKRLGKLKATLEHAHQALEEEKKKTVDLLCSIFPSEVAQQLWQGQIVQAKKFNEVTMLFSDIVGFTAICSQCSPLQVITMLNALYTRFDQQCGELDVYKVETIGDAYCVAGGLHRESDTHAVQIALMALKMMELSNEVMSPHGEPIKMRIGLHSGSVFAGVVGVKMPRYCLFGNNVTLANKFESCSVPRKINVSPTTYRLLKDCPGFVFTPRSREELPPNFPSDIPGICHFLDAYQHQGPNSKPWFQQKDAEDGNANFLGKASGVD
Procedure: (§1) Investigations on the stimulation of recombinant soluble guanylate cyclase (sGC) by the compounds according to the invention with and without sodium nitroprusside, and with and without the haem-dependent sGC inhibitor 1H-1,2,4-oxadiazolo-(4,3a)-quinoxalin-1-one (ODQ) are carried out by the method described in detail in the following reference: M. Hoenicka, E. M. Becker, H. Apeler, T. Sirichoke, H. Schroeder, R. Gerzer and J.-P. Stasch, “Purified soluble guanylyl cyclase expressed in a baculovirus/Sf9 system: Stimulation by YC-1, nitric oxide, and […]”, J. Mol. Med. 77 (1999), 14-23. The haem-free guanylate cyclase is obtained by adding Tween 20 to the sample buffer (0.5% in the final concentration).
(§2) The activation of sGC by a test substance is reported as x-fold stimulation of the basal activity.

[2] = biological target: T2, haem-free recombinant soluble guanylate cyclase (sGC) (Rattus norvegicus, UniProt P20595); experiment: Stimulation of recombinant soluble guanylate cyclase (sGC) in vitro, haem-free enzyme; type: biochemical
T2 construct: made in house; host or cells: Sf9 insect cells (baculovirus)
T2 sequence (P20595 1-619): T1 sequence (P20595 1-619)
T2 sequence (P19686 1-690 partner): T1 sequence (P19686 1-690 partner)
Procedure: as §1, §2

[3] = system: recombinant guanylate cyclase reporter cell line; experiment: Action at recombinant guanylate cyclase reporter cell line (CHO reporter cell); type: cell-based; conditions: MEC = minimal effective concentration; read-out: sGC-activating activity in the CHO reporter cell in vitro, MEC
Procedure: The cellular action of the compounds according to the invention is determined at a recombinant guanylate cyclase reporter cell line, as described in F. Wunder et al., Anal. Biochem. 339, 104-112 (2005).

[4] = biological target: T3, soluble guanylate cyclase (sGC) (Rattus norvegicus, UniProt P20595); experiment: Stimulation of sGC enzyme activity (PPi detection, luciferase luminescence); type: biochemical; conditions: for EC50: EC50 = concentration at 50% of maximum efficacy, read-out: Activating action at the sGC enzyme in vitro, EC50; for Activating action at the sGC enzyme in vitro, MEC: MEC = minimal effective concentration
T3 construct: made in house; host or cells: Sf9 insect cells (baculovirus)
T3 sequence (P20595 1-619): T1 sequence (P20595 1-619)
T3 sequence (P19686 1-690 partner): T1 sequence (P19686 1-690 partner)
Procedure: Soluble guanylate cyclase (sGC) converts on stimulation GTP into cGMP and pyrophosphate (PPi). PPi is detected with the aid of the assay described below. The signal produced in the assay increases as the reaction progresses and serves as a measure of the sGC enzyme activity under the given stimulation.
To carry out the assay, 29 μl of enzyme solution [0-10 nM soluble guanylate cyclase (prepared according to Hönicka et al., J. Mol. Med. 77, 14-23 (1999)) in 50 mM TEA, 2 mM MgCl2, 0.1% BSA (fraction V), 0.005% Brij®, pH 7.5] are initially introduced into a microplate, and 1 μl of the substance to be tested (as a serially diluted solution in DMSO) is added. The mixture is incubated at room temperature for 10 min. Then 20 μl of detection mix [1.2 nM Firefly Luciferase (Photinus pyralis luciferase, Promega), 29 μM dehydroluciferin (prepared according to Bitler & McElroy, Arch. Biochem. Biophys. 72, 358 (1957)), 122 μM luciferin (Promega), 153 μM ATP (Sigma) and 0.4 mM DTT (Sigma) in 50 mM TEA, 2 mM MgCl2, 0.1% BSA (fraction V), 0.005% Brij®, pH 7.5] are added. The enzyme reaction is started by adding 20 μl of substrate solution [1.25 mM guanosine 5′-triphosphate (Sigma) in 50 mM TEA, 2 mM MgCl2, 0.1% BSA (fraction V), 0.005% Brij®, pH 7.5] and measured continuously in a luminometer. The extent of the stimulation by the substance to be tested can be determined relative to the signal of the unstimulated reaction.
The activation of haem-free guanylate cyclase is examined by addition of 25 μM of 1H-1,2,4-oxadiazolo[4,3-a]quinoxalin-1-one (ODQ) to the enzyme solution and subsequent incubation for 30 minutes, and compared to the stimulation of the native enzyme.

With `C[C@H]([C@H](C(=O)Nc1cc(CCC(=O)O)ccc1Cl)c1ccc(Cl)cc1)C(F)(F)F` [Example 15, (+)-3-(4-Chloro-3-{[(2S,3R)-2-(4-chlorophenyl)-4,4,4-trifluoro-3-methylbutanoyl]amino}phenyl)-propanoic acid] the “Stimulation (x-fold) of recombinant sGC, haem-containing sGC, +0.01 μM DEA/NO” value (shortened to “Stimulation (x-fold) … +0.01 μM DEA/NO”) ([1]; 0.01 μM test compound) was 5.9 ± 0.7 x-fold, the “Stimulation (x-fold) of recombinant sGC, haem-containing sGC, +10 μM ODQ” value (from here on “Stimulation (x-fold) … +10 μM ODQ”) ([1]; 0.01 μM test compound) was 4.6 ± 0.8 x-fold and the “Stimulation (x-fold) of recombinant sGC, haem-containing sGC, basal” value ([1]; 0.01 μM test compound) was 1.1 ± 0.1 x-fold. The “Stimulation (x-fold) … +0.01 μM DEA/NO” value ([1]; 0.1 μM test compound) was 7.4 ± 0.8 x-fold, the “Stimulation (x-fold) … +10 μM ODQ” value ([1]; 0.1 μM test compound) was 4.5 ± 0.6 x-fold and the “Stimulation (x-fold) of recombinant sGC, haem-containing sGC, basal” value ([1]; 0.1 μM test compound) was 1.0 ± 0.1 x-fold. The “Stimulation (x-fold) … +0.01 μM DEA/NO” value ([1]; 1.0 μM test compound) was 8.5 ± 0.7 x-fold, the “Stimulation (x-fold) … +10 μM ODQ” value ([1]; 1.0 μM test compound) was 4.8 ± 0.8 x-fold and the “Stimulation (x-fold) of recombinant sGC, haem-containing sGC, basal” value ([1]; 1.0 μM test compound) was 0.9 ± 0.1 x-fold. The “Stimulation (x-fold) … +0.01 μM DEA/NO” value ([1]; 10 μM test compound) was 11.5 ± 0.9 x-fold, the “Stimulation (x-fold) … +10 μM ODQ” value ([1]; 10 μM test compound) was 16.3 ± 1.3 x-fold and the “Stimulation (x-fold) of recombinant sGC, haem-containing sGC, basal” value ([1]; 10 μM test compound) was 3.1 ± 0.3 x-fold. For the same compound, the “Stimulation (x-fold) … +0.01 μM DEA/NO” value ([1]; 100 μM test compound) was 45.9 ± 3.1 x-fold, the “Stimulation (x-fold) … +10 μM ODQ” value ([1]; 100 μM test compound) was 97.3 ± 7.7 x-fold and the “Stimulation (x-fold) of recombinant sGC, haem-containing sGC, basal” value ([1]; 100 μM test compound) was 31.6 ± 2.6 x-fold. The “Effect of combination with the NO donor DEA/NO on sGC stimulation” value [1] was “no synergistic effect”, the “Stimulation (x-fold) of recombinant sGC, haem-free sGC, basal” value ([2]; 0.01 μM test compound) was 1.7 ± 0.3 x-fold and the “Stimulation (x-fold) of recombinant sGC, haem-free sGC, basal” value ([2]; 0.1 μM test compound) was 1.8 ± 0.2 x-fold. For the same compound, the “Stimulation (x-fold) of recombinant sGC, haem-free sGC, basal” value ([2]; 1.0 μM test compound) was 3.0 ± 0.5 x-fold, the “Stimulation (x-fold) of recombinant sGC, haem-free sGC, basal” value ([2]; 10 μM test compound) was 17.9 ± 3.1 x-fold and the “Stimulation (x-fold) of recombinant sGC, haem-free sGC, basal” value ([2]; 100 μM test compound) was 40.3 ± 6.6 x-fold. For the same compound, the minimal effective concentration [3] was 0.01 µM, the EC50 [4] was 0.29 µM and the “Activating action at the sGC enzyme in vitro, MEC” value [4] was 10 nM.
`C[C@H]([C@H](C(=O)Nc1cc(C[C@H](C)C(=O)O)ccc1Cl)c1ccc(Cl)cc1)C(F)(F)F` [Example 17, (+)-(2S)-3-(4-Chloro-3-{[(2S,3R)-2-(4-chlorophenyl)-4,4,4-trifluoro-3-methylbutanoyl]amino}-phenyl)-2-methylpropanoic acid] was tested, and the “Stimulation (x-fold) … +0.01 μM DEA/NO” value ([1]; 0.01 μM test compound) was 9.6 ± 0.8 x-fold, the “Stimulation (x-fold) … +10 μM ODQ” value ([1]; 0.01 μM test compound) was 4.9 ± 1.2 x-fold and the “Stimulation (x-fold) of recombinant sGC, haem-containing sGC, basal” value ([1]; 0.01 μM test compound) was 0.7 ± 0.2 x-fold. The “Stimulation (x-fold) … +0.01 μM DEA/NO” value ([1]; 0.1 μM test compound) was 8.8 ± 1.2 x-fold, the “Stimulation (x-fold) … +10 μM ODQ” value ([1]; 0.1 μM test compound) was 5.3 ± 1.3 x-fold and the “Stimulation (x-fold) of recombinant sGC, haem-containing sGC, basal” value ([1]; 0.1 μM test compound) was 0.6 ± 0.1 x-fold. For the same compound, the “Stimulation (x-fold) … +0.01 μM DEA/NO” value ([1]; 1.0 μM test compound) was 9.8 ± 1.2 x-fold, the “Stimulation (x-fold) … +10 μM ODQ” value ([1]; 1.0 μM test compound) was 4.5 ± 1.1 x-fold and the “Stimulation (x-fold) of recombinant sGC, haem-containing sGC, basal” value ([1]; 1.0 μM test compound) was 0.6 ± 0.1 x-fold. The “Stimulation (x-fold) … +0.01 μM DEA/NO” value ([1]; 10 μM test compound) was 10.7 ± 1.0 x-fold, the “Stimulation (x-fold) … +10 μM ODQ” value ([1]; 10 μM test compound) was 8.3 ± 1.4 x-fold and the “Stimulation (x-fold) of recombinant sGC, haem-containing sGC, basal” value ([1]; 10 μM test compound) was 1.8 ± 0.3 x-fold. For the same compound, the “Stimulation (x-fold) … +0.01 μM DEA/NO” value ([1]; 100 μM test compound) was 11.4 ± 1.2 x-fold, the “Stimulation (x-fold) … +10 μM ODQ” value ([1]; 100 μM test compound) was 15.0 ± 2.0 x-fold and the “Stimulation (x-fold) of recombinant sGC, haem-containing sGC, basal” value ([1]; 100 μM test compound) was 4.9 ± 0.7 x-fold. For the same compound, the “Effect of combination with the NO donor DEA/NO on sGC stimulation” value [1] was “no synergistic effect”, the “Stimulation (x-fold) of recombinant sGC, haem-free sGC, basal” value ([2]; 0.01 μM test compound) was 1.7 ± 0.2 x-fold and the “Stimulation (x-fold) of recombinant sGC, haem-free sGC, basal” value ([2]; 0.1 μM test compound) was 2.0 ± 0.3 x-fold. For the same compound, the “Stimulation (x-fold) of recombinant sGC, haem-free sGC, basal” value ([2]; 1.0 μM test compound) was 4.1 ± 0.3 x-fold, the “Stimulation (x-fold) of recombinant sGC, haem-free sGC, basal” value ([2]; 10 μM test compound) was 22.9 ± 1.8 x-fold and the “Stimulation (x-fold) of recombinant sGC, haem-free sGC, basal” value ([2]; 100 μM test compound) was 33.5 ± 3.3 x-fold. The minimal effective concentration [3] was 0.0048 µM, the EC50 [4] was 0.13 µM and the “Activating action at the sGC enzyme in vitro, MEC” value [4] was 7 nM.
